Each block holds one compound with its values, some of them ahead of it. Activity calls are given as the source filed them.
What was measured:
HEK293 = assay: cells; type: functional, cell-based; settings: Homo sapiens
[1] = target: Nuclear receptor subfamily 0 group B member 1 (Homo sapiens, UniProt P51843); assay: Luminescence-based cell-based high throughput dose response assay for inhibitors of the orphan nuclear receptor subfamily 0, group B, member 1 (DAX1; NR0B1). [Related pubchem assays (depositor defined):AID504766, AID504790]; type: functional
Nuclear receptor subfamily 0 group B member 1, sequence (P51843 whole entry): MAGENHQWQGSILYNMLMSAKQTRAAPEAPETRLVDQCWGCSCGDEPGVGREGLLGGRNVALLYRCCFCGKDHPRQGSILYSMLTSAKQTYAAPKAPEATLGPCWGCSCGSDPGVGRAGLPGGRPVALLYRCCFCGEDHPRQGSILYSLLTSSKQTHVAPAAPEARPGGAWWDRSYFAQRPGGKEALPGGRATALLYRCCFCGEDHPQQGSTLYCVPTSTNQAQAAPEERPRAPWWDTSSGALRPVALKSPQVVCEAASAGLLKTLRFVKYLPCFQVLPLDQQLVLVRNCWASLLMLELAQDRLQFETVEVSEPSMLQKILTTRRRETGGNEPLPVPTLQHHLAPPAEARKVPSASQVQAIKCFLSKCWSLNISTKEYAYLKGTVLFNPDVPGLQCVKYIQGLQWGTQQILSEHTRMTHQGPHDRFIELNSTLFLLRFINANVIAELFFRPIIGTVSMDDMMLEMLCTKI

INS1 [2] = assay: beta-cell survival under cytokine stress – INS-1E, ATP luminescence, dry powder, dose response (AID 488844); type: functional, cell-based; settings: Rattus norvegicus
INS1 [3] = assay: INS-1E mitochondrial potential rescue under cytokines – cell-based, JC-1 fluorescence ratio, dry powder, dose response (AID 488931); type: functional; settings: Rattus norvegicus
INS1 [4] = assay: suppression of cytokine-induced beta-cell apoptosis – INS-1E, caspase luminescence, dry powder, beta-cell apoptosis inhibitor project, dose response (AID 488848); type: functional, cell-based; settings: Rattus norvegicus
SUMO E1/E2 = SUMO E1/E2 (Homo sapiens, UniProt P63279+Q9UBE0+Q9UBT2); assay: SAR analysis of SUMOylation using HTRF in an in-Vitro dose response assay. [Related pubchem assays (depositor defined):AID2006, AID2011, AID2018, AID2069, AID2658]; type: functional
Estrogen receptor beta [5] = target: T1, Estrogen receptor beta (Homo sapiens, UniProt Q92731); assay: blockers of SRC-3 recruitment to ERβ – biochemical, ELISA, streptavidin-HRP readout, orthogonal assay, confirmation (AID 1060)
T1 sequence (Q92731 whole entry): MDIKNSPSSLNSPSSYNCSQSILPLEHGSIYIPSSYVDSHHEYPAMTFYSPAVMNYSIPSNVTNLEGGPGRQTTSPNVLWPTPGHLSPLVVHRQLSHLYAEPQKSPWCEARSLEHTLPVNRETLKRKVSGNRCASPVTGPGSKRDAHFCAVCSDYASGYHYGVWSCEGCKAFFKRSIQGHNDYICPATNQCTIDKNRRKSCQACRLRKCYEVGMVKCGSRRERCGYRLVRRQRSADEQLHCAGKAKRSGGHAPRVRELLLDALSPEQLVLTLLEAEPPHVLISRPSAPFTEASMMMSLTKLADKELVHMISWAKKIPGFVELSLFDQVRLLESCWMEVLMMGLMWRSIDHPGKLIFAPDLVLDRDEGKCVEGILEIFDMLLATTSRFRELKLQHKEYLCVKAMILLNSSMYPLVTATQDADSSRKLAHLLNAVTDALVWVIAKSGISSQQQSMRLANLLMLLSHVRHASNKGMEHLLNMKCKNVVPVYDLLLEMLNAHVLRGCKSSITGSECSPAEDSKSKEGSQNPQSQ

Estrogen receptor beta [6] = target: T1, Estrogen receptor beta
[7] = target: T2, Voltage-gated N-type calcium channel alpha-1B subunit/Amyloid beta A4 precursor protein-binding family A member 1 (Homo sapiens, UniProt Q00975+Q02410); assay: disruptors of Mint-PDZ/N-type channel peptide interaction – biochemical, HTRF, set 2, SAR follow-up (AID 434980); type: functional
T2 sequence (Q00975 whole entry): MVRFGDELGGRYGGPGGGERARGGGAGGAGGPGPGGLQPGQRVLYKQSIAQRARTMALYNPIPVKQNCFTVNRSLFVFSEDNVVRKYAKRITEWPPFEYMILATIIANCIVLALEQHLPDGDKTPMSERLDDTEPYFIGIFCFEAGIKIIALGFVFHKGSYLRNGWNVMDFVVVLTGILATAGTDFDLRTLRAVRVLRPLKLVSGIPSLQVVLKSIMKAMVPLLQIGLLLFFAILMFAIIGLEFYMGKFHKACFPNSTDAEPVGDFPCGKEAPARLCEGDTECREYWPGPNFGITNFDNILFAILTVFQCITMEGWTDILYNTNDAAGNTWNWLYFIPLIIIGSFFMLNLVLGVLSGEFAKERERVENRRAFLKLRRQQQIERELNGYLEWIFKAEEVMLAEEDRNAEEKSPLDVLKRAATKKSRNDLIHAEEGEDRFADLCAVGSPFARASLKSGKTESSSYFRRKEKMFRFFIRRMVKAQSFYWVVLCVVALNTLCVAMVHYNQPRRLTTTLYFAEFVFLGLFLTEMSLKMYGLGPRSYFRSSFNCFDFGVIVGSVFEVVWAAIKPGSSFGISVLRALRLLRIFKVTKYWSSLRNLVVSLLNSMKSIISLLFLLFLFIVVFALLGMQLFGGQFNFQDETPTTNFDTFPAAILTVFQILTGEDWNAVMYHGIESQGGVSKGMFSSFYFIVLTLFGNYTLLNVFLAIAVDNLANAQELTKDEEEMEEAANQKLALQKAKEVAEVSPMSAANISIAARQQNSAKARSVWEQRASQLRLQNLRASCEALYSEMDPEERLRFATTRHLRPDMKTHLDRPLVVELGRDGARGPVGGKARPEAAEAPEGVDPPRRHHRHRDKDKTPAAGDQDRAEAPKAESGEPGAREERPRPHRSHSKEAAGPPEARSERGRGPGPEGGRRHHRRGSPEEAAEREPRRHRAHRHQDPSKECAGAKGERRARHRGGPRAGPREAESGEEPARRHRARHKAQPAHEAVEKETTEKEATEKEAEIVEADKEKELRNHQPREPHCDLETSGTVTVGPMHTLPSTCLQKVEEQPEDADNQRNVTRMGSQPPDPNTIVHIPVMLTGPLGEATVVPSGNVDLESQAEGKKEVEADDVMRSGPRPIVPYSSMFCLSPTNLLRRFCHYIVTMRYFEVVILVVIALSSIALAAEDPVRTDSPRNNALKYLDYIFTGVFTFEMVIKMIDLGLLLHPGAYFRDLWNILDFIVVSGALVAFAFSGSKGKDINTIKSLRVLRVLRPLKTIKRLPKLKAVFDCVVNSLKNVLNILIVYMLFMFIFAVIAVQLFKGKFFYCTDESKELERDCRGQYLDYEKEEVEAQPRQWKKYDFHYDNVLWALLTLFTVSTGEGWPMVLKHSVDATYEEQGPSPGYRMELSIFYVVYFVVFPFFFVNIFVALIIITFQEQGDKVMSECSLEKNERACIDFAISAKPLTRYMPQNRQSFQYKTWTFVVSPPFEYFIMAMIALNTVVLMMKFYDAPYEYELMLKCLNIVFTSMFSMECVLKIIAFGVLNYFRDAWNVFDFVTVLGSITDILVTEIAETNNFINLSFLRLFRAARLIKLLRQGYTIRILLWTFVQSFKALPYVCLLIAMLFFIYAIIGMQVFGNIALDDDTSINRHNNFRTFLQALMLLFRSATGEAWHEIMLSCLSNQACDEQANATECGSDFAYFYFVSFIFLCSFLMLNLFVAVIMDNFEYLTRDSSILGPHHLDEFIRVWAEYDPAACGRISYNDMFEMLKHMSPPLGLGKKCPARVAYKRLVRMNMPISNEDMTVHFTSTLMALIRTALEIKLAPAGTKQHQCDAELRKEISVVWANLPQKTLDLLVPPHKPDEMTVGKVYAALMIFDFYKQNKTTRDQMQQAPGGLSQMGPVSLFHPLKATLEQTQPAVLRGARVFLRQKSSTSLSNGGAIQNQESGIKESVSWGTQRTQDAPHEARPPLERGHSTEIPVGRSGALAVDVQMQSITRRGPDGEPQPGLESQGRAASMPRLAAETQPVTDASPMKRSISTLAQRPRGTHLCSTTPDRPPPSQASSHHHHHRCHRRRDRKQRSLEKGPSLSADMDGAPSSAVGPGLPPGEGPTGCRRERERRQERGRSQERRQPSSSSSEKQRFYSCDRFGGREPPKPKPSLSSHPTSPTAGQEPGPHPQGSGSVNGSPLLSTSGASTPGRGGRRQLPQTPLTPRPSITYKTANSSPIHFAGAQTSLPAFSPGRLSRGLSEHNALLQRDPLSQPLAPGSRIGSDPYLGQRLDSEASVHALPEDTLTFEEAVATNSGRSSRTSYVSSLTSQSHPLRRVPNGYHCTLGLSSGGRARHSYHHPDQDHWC
T2 sequence (Q02410 whole entry): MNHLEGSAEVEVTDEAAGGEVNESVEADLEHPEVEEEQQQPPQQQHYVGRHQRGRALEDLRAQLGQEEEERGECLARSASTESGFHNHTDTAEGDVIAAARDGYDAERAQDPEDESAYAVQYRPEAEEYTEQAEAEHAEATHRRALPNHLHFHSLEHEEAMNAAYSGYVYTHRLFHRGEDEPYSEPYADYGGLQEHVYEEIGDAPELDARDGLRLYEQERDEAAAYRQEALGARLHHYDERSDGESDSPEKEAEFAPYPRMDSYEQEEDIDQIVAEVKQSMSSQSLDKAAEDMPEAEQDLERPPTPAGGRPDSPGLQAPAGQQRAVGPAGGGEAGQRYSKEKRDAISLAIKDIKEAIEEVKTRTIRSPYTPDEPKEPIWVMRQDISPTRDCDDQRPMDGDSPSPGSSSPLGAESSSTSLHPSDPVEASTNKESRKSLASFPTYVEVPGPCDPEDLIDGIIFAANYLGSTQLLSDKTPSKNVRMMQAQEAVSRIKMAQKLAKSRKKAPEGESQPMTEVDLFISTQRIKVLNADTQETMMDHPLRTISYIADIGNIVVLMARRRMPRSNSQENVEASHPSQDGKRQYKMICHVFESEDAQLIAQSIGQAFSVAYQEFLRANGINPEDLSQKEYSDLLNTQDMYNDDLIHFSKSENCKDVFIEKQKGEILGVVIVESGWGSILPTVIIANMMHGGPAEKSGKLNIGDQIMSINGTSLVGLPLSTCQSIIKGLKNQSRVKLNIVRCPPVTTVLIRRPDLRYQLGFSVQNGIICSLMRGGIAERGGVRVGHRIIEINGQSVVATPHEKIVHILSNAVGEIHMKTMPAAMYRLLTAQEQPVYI

[8] = target: T2, Voltage-gated N-type calcium channel alpha-1B subunit/Amyloid beta A4 precursor protein-binding family A member 1; assay: disruptors of Mint-PDZ/N-type channel peptide interaction – biochemical, HTRF, SAR follow-up (AID 2489); type: functional
[9] = viability loss of HMLE_sh_eGFP cells – cell-based, luminescence, counter-screen for HMLE_sh_ECad selective toxicity project, dose response (AID 463074); type: functional, Homo sapiens;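 further: HMLE human mammary epithelial cells expressing control shRNA against eGFP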
INS1 [10] = assay: INS-1E survival protection against cytokine death – cell-based, luminescence, retest, dose response (AID 449756); type: functional; settings: Rattus norvegicus;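 further: cell death triggered by IL-1 beta plus TNF-alpha plus IFN-gamma mixture; protective hits raise ATP signal compared with cytokine alone wells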
[11] = Luminescence Cell-Based Dose Retest to Confirm Inhibitors of Cancer Stem Cells. [Related pubchem assays (depositor defined):AID2717, AID2721]; type: functional; settings: Homo sapiens
CAAX prenyl protease 2 = CAAX prenyl protease 2 (Homo sapiens, UniProt Q9Y256); assay: inhibition of Ras-converting CAAX protease Rce1 – biochemical, yeast membranes, quenched-peptide fluorescence, cherry-pick, dose response (AID 588849)
CAAX prenyl protease 2, sequence (Q9Y256 whole entry): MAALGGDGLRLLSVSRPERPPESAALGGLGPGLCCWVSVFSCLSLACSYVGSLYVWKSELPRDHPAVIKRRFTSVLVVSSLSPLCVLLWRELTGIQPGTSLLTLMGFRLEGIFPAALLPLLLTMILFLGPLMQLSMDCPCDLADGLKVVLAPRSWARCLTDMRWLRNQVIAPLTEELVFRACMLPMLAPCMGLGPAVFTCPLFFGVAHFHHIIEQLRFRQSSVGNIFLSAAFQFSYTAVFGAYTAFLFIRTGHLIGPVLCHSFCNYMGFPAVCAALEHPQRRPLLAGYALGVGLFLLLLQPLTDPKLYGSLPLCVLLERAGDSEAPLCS

Cytochrome P450 3A4 = Cytochrome P450 3A4 (Homo sapiens, UniProt P08684);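 further: CYP3A4 tested as one member of a cytochrome P450 panel screen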
Cytochrome P450 2D6 = Cytochrome P450 2D6 (Homo sapiens, UniProt P10635);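 further: CYP2D6 member of a cytochrome P450 panel assay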
Cytochrome P450 2C9 = Cytochrome P450 2C9 (Homo sapiens, UniProt P11712)
Cytochrome P450 1A2 = target: T3, Cytochrome P450 1A2 (Homo sapiens, UniProt P05177);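 further: PubChem cytochrome P450 panel assay, CYP1A2 panel member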
T3 sequence (P05177 whole entry): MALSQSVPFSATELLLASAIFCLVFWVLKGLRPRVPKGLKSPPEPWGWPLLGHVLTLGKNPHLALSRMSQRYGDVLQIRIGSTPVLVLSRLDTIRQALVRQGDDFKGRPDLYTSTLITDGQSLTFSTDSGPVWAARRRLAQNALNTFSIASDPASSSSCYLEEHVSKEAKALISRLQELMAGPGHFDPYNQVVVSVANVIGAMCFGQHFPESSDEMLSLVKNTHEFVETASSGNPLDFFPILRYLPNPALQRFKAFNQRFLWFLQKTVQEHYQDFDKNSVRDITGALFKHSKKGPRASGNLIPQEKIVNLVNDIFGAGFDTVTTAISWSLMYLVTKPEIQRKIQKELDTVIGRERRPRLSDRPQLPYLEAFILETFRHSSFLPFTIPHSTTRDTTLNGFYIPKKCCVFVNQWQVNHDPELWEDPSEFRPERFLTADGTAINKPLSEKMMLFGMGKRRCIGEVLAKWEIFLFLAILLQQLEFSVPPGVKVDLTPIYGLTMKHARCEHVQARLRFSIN

Cytochrome P450 2C19 = Cytochrome P450 2C19 (Homo sapiens, UniProt P33261); assay: Cytochrome panel assay with activity outcomes. Panel member name: p450-cyp2c19 Compounds with AC50 equal or less than 10 uM are considered active; type: functional
Cytochrome P450 2C19, sequence (P33261 whole entry): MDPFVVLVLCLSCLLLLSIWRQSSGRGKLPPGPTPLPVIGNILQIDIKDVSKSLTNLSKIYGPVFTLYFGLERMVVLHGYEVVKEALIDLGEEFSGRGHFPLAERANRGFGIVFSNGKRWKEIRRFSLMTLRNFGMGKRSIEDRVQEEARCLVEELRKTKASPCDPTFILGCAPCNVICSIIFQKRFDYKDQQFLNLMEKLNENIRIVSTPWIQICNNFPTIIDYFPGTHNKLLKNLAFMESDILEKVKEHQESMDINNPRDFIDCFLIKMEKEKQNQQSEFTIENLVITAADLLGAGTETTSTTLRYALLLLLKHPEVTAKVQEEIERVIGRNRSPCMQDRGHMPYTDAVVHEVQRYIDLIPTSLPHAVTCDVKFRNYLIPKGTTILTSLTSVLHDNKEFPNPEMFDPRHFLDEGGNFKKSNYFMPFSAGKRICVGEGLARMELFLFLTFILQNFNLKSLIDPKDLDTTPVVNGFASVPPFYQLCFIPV

Compound: CCOc1ccc2nc(NS(=O)(=O)Cc3ccccc3)sc2c1
IC50 (HEK293): > 67.5 µM (inactive) | IC50 [1]: > 67.5 µM (inactive)

Compound: C[C@@H]1CN([C@@H](C)CO)C(=O)c2cccc(NC(=O)Nc3ccc(F)cc3)c2O[C@H]1CN(C)S(=O)(=O)c1ccc(F)cc1
AC50 (INS1 [2]): 72 µM (active) | AC50 (INS1 [3]): 63.3 µM (active) | AC50 (INS1 [4]): > 195 µM (inactive)

IC50 (SUMO E1/E2): 6.59 µM (active) | IC50 (Estrogen receptor beta [5]): > 50 µM (not active) | IC50 (Estrogen receptor beta [6]): < 1.56 µM (active) | IC50 [7]: 11.4 µM (active) | IC50 [8]: > 56.8 µM (inactive)
Compound: COc1ccc(CNC(=O)COC(=O)c2cc(-c3ccco3)nc3ccccc23)cc1

Compound: C=CC[n+]1c(-c2ccc(OCC)cc2)csc1NNC(=O)Nc1ccccc1
AC50 [9]: 24.7 µM (active) | AC50 (INS1 [10]): 6.63 µM (active) | AC50 [11]: 88.4 µM (active)

AC50 (CAAX prenyl protease 2): 20.9 µM (active)
Compound: COc1cccc(/C=C/C(=O)OCC(=O)Nc2ccc(Cl)c(S(=O)(=O)N(C)C)c2)c1OC

Compound: N#Cc1cccc(NC(=O)N2CC[C@@]3(CCCN(C(=O)Oc4ccccc4)C3)C2)c1
AC50 (Cytochrome P450 3A4): 2.51 µM (inconclusive) | AC50 (Cytochrome P450 2D6): inconclusive | AC50 (Cytochrome P450 2C9): inconclusive | AC50 (Cytochrome P450 1A2): inconclusive | AC50 (Cytochrome P450 2C19): inconclusive
